Data published in patent US8772499B2, “TRPV3 modulators” (AbbVie Inc., priority 2011, dated 2014).
Like-named read-outs stand apart in the source and are kept apart here.

How the values were obtained:
[1] = In vitro rat microsomal stability assay; type: in vitro ADME, rat (Sprague-Dawley)
Summary of the method: (§1)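 Test compounds were incubated at 37° C. with Sprague-Dawley rat liver microsomes or with human liver microsomes. NADPH was supplied as cofactor and was also added to the time-zero plates.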

[2] = molecular target: T1, human TRPV3 (Homo sapiens, UniProt Q8NET8); test: In vitro antagonism of recombinant human TRPV3 activation (FLIPR Tetra calcium assay); type: cell-based; details: HEK293 cells stably expressing human TRPV3, agonist 2-APB at 80 μM
T1 construct: expressed in transfected cells
T1 sequence (Q8NET8 1-790): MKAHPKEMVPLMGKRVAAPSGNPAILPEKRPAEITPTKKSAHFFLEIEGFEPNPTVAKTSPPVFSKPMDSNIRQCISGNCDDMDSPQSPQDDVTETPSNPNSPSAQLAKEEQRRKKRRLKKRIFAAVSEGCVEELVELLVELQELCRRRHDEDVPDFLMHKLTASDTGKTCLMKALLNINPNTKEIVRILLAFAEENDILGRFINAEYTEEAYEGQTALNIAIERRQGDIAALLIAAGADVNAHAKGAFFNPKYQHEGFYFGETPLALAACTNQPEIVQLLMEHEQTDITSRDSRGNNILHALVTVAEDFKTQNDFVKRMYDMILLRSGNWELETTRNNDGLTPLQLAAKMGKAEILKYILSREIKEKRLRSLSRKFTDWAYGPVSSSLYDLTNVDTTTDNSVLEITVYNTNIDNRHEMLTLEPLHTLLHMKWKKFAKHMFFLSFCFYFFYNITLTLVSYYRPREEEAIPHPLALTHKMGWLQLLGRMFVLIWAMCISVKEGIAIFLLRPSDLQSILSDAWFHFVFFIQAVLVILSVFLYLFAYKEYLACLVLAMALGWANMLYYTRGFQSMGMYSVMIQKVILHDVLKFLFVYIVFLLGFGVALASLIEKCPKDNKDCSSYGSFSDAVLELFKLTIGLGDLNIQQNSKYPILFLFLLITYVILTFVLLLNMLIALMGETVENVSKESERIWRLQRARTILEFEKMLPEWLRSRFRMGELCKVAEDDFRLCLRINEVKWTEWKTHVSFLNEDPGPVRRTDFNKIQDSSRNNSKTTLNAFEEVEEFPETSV
Summary of the method: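 HEK293 cells stably expressing human TRPV3, loaded with Calcium-4 dye for 90–120 min, received compound in DPBS, then 80 μM 2-APB (EC80) 3 min later. Max-minus-min fluorescence expressed as % of 2-APB response without antagonist; IC50 values mostly averages of n≥2 runs.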

[3] = In vitro human microsomal stability assay; type: in vitro ADME
Summary of the method: as §1

[4] = rat liver microsomes (Sprague-Dawley), 0.5 μM substrate, 0.25 mg/mL microsomal protein, pH 7.4, 37° C., NADPH, 30 minutes
[5] = actual measured value shown parenthetically, in most cases average of at least two runs, read-out: IC50
[6] = human liver microsomes, 0.5 μM substrate, 0.25 mg/mL microsomal protein, pH 7.4, 37° C., NADPH, 30 minutes
[7] = Sprague-Dawley, rat, microsomes, 0.5 h, 0.5 μM, pH 7.4
[8] = human, microsomes, 0.5 h, 0.5 μM, pH 7.4
[9] = reported range, read-out: IC50 (range class)

Row | SMILES | IC50 [2, 5] | RAT MICROSOMAL STABILITY (% REMAINING AFTER 30 MINUTES) [1, 7] | HUMAN MICROSOMAL STABILITY (% REMAINING AFTER 30 MINUTES) [3, 8] | RAT MICROSOMAL STABILITY (% REMAINING AFTER 30 MINUTES) [1, 4] | HUMAN MICROSOMAL STABILITY (% REMAINING AFTER 30 MINUTES) [3, 6] | IC50 [2, 9]
1 | OC(c1ccccn1)C1(c2cccc(OC(F)(F)F)c2)CCNCC1 (centres unmarked) [Example 148, pyridin-2-yl{4-[3-(trifluoromethoxy)phenyl]piperidin-4-yl}methanol] | 3.1 µM |  |  | 53% | >85% | 
2 | OC(c1ccccn1)C1(c2cncc(C(F)(F)F)c2)CCC1 (centres unmarked) [Example 110, pyridin-2-yl{1-[5-(trifluoromethyl)pyridin-3-yl]cyclobutyl}methanol] | 0.5 µM | 2.8% | 8.0% |  |  | 
3 | O[C@@H](c1ccccn1)C1(c2ccc(OC(F)(F)F)cc2)CC(F)(F)C1 [Example 159, (R)-{3,3-difluoro-1-[4-(trifluoromethoxy)phenyl]cyclobutyl}(pyridin-2-yl)-methanol] | 1.98 µM | 65% | 45% |  |  | 
4 | O[C@H](c1ccccn1)[C@@]1(c2ccc(Cl)c(Cl)c2)CCO1 [Example 135, (R)-[(2S)-2-(3,4-dichlorophenyl)oxetan-2-yl](pyridin-2-yl)methanol] | 1.01 µM | 3.4% | 33% |  |  | 
5 | OC(c1ccccn1)C1(c2cccc(C(F)(F)F)c2)CCCO1 (single isomer, unassigned) [Example 106, (anti)-pyridin-2-yl{2-[3-(trifluoromethyl)phenyl]tetrahydrofuran-2-yl}-methanol] | 0.21 µM | 1.6% | 3.9% |  |  | 
6 | OC(C1CCc2cccnc21)C1(c2ccc(C(F)(F)F)cc2)CCC1 (stereo not drawn) [Example 173, (anti)-6,7-dihydro-5H-cyclopenta[b]pyridin-7-yl{1-[4-(trifluoromethyl)-phenyl]cyclobutyl}methanol] | > 20 µM | <0.01% | 45% |  |  | > 20 µM
7 | OC(c1ccccn1)C1(c2ccccc2OC(F)(F)F)CCCO1 (single isomer, unassigned) [Example 96, (anti)-pyridin-2-yl{2-[2-(trifluoromethoxy)phenyl]tetrahydrofuran-2-yl}-methanol] | 1.22 µM | 0.15% | 0.68% |  |  | 
8 | Cl.O[C@H](c1ccccn1)C1(c2ccc(Cl)c(Cl)c2)CC(F)(F)C1 [Example 111, (S)-[1-(3,4-dichlorophenyl)-3,3-difluorocyclobutyl](pyridin-2-yl)methanol hydrochloride] | 0.19 µM |  |  | 23% | 52% | 
9 | CC(C)(C)OC(=O)N1CCC(c2cccc(OC(F)(F)F)c2)(C(O)c2ccccn2)CC1 (centres unmarked) [Example 158, tert-butyl 4-[hydroxy(pyridin-2-yl)methyl]-4-[3-(trifluoromethoxy)phenyl]-piperidine-1-carboxylate] | > 20 µM |  |  | 0.04% | 3.7% | > 20 µM
10 | OC(c1ccccn1)C1(c2ccccc2F)CCCO1 (stereo not drawn) [Example 103, (syn)-[2-(2-fluorophenyl)tetrahydrofuran-2-yl](pyridin-2-yl)methanol] | 2 µM | 0.012% | 73% |  |  | 
11 | N[C@H]1CCC[C@H]1[C@@H](O)C1(c2ccccc2F)CCC1 [Example 226, (R)-[(1R,2S)-2-aminocyclopentyl][1-(2-fluorophenyl)cyclobutyl]methanol] | 0.79 µM | <0.01% | >85% |  |  | 

The remaining molecules from weak to strong by IC50 [2, 5], led by results:

Row | IC50 [2, 5] | RAT MICROSOMAL STABILITY (% REMAINING AFTER 30 MINUTES) [1, 7] | HUMAN MICROSOMAL STABILITY (% REMAINING AFTER 30 MINUTES) [3, 8] | SMILES | RAT MICROSOMAL STABILITY (% REMAINING AFTER 30 MINUTES) [1, 4] | HUMAN MICROSOMAL STABILITY (% REMAINING AFTER 30 MINUTES) [3, 6] | IC50 [2, 9]
12 | 19 µM | 5.7% | 67% | Cn1c(C2(C(O)c3ccccn3)CCC2)nc2ccccc21 (centres unmarked) [Example 275, [1-(1-methyl-1H-benzimidazol-2-yl)cyclobutyl](pyridin-2-yl)methanol] |  |  | 
13 | 18.5 µM | 55% | 64% | O=C1CC(c2cccc(C(F)(F)F)c2)([C@@H](O)c2ccccn2)C1 (single isomer, unassigned) [Example 243] |  |  | 
14 | 8.01 µM | 21% | 49% | CC(C)(C)OC(=O)N1CC(c2ccc(C(F)(F)F)cc2)(C(O)c2ccccn2)C1 (centres unmarked) [Example 153, tert-butyl 3-[hydroxy(pyridin-2-yl)methyl]-3-[4-(trifluoromethyl)phenyl]-azetidine-1-carboxylate] |  |  | 
15 | 7.57 µM | 0.040% | 42% | OC(c1ccccn1)C1(c2cccc(Cl)c2)CCCO1 (single isomer, unassigned) [Example 105, (syn)-[2-(3-chlorophenyl)tetrahydrofuran-2-yl](pyridin-2-yl)methanol] |  |  | 
16 | 3.38 µM | <0.01% | 0.12% | OC(C1CCCc2cccnc21)C1(c2ccc(OC(F)(F)F)cc2)CCC1 (single isomer, unassigned) [Example 177, (anti)-5,6,7,8-tetrahydroquinolin-8-yl{1-[4-(trifluoromethoxy)phenyl]-cyclobutyl}methanol] |  |  | 
17 | 2.63 µM | 62% | 83% | NC1CCCC1C(O)C1(c2ccc(OC(F)(F)F)cc2)CCC1 (centres unmarked) [Example 206, (2-aminocyclopentyl) {1-[4-(trifluoromethoxy)phenyl]cyclobutyl}methanol] |  |  | 
18 | 2.6 µM | 47% | 58% | OC(c1ccccn1)C1(c2ccc(OC(F)(F)F)cc2)CCOCC1 (centres unmarked) [Example 67, pyridin-2-yl{4-[4-(trifluoromethoxy)phenyl]tetrahydro-2H-pyran-4-yl}-methanol] |  |  | 
19 | 2.42 µM | 0.18% | 0.08% | CC(c1ccccc1Cl)C1(C(O)c2ccccn2)CCC1 (centres unmarked) [Example 50, {1-[1-(2-chlorophenyl)ethyl]cyclobutyl}(pyridin-2-yl)methanol] |  |  | 
20 | 1.1 µM | 0.62% | 0.42% | OC(c1ccccn1)C1(c2ccccc2OC(F)(F)F)CCC1 (centres unmarked) [Example 10, pyridin-2-yl{1-[2-(trifluoromethoxy)phenyl]cyclobutyl}methanol] |  |  | 
21 | 0.79 µM | 3.8% | 28% | OC(c1ccccn1)C1(c2ccc(F)cc2)CCC1 (centres unmarked) [Example 3, [1-(4-fluorophenyl)cyclobutyl](pyridin-2-yl)methanol] |  |  | 
22 | 0.5 µM | 42% | >85% | N[C@@H]1CCC[C@H]1[C@@H](O)C1(c2cccc(C(F)(F)F)c2)CCC1 [Example 227, (R)-[(1R,2R)-2-aminocyclopentyl]{1-[3-(trifluoromethyl)phenyl]-cyclobutyl}methanol] |  |  | 
23 | 0.33 µM | 1.0% | 46% | Cc1cccc(C2(C(O)c3ccccn3)CCCO2)c1 (centres unmarked) [Example 91, [2-(3-methylphenyl)tetrahydrofuran-2-yl](pyridin-2-yl)methanol] |  |  | 
24 | 0.23 µM | 11% | 6.9% | OC(c1ccccn1)C1(c2cccc(OC(F)(F)F)c2)CC(F)(F)C1 (centres unmarked) [Example 114, {3,3-difluoro-1-[3-(trifluoromethoxy)phenyl]cyclobutyl}(pyridin-2-yl)-methanol] |  |  | 
